# US20210379210A1, “RADIOLIGANDS FOR IMAGING THE LPA1 RECEPTOR” (BRISTOL-MYERS SQUIBB COMPANY, priority 2018, published 2021)
# Assays:
# [1] = In-vivo PET imaging in bleomycin treated rat model, LPA1 target engagement (% displacement); settings: Sprague Dawley, rat, lung, intravenous, bleomycin treated rats, baseline
# Method: (§1) [^18F]-(1S,3S)-3-(((6-(5-((((4-(fluoro)butyl)(methyl)carbamoyl)oxy)methyl)-1-methyl-1H-1,2,3-triazol-4-yl)-2-methylpyridin-3-yl)oxy)cyclohexane-1-carboxylic acid was tested to confirm its properties, specificity and targeting of the LPA1 receptor in aged-matched wild type (Sprague Dawley rat, Charles River Laboratory, PA) and bleomycin-induced pulmonary fibrosis rat models. The bleomycin-induced pulmonary fibrosis rat model was generated in anesthetized rats that were administered bleomycin (2 μL/g) via oropharyngeal instillation. For oropharyngeal instillation, anesthetized rats (isoflurane, 4% in 100% 02) were placed on a slanted board/tilting workstation and bleomycin was dripped onto the vocal cords, facilitating aspiration. Rats were then returned to their cages until they fully recovered from anesthesia and were monitored daily for the duration of the experiment. In this experiment, the [^18F]-labeled LPA1 antagonist, produced as described in the above Examples, was tested for its ability to discriminate between normal lung in wild type rats and increased lung LPA1 expression in the bleomycin rat disease model. The bleomycin treated rats were used at 14 and 15 days post bleomycin treatment. […] For PET image acquisition, rats were placed in an anesthetic induction chamber and 3% isoflurane inhalant anesthesia was delivered in 100% O2 at a rate of 1-1.5 L/min. Once sedated, the rats were removed from the induction chamber and placed into a plexiglass 2-chamber holder (custom-made by BMS-Applied Biotechnology group) within the gantry of the PET system (microPET® F220™, Siemens Preclinical Solutions, Knoxville, Tenn.) where they remained for the duration of the study. Anesthesia was maintained with 1-1.5% isoflurane inhalant anesthesia delivered in 100% 02 at a rate of 2 L/min via the nose-cone. Animals were kept warm using an external standalone temperature regulating unit (M2M Imaging Corp) to prevent hypothermia during imaging. Rat respiration was continuously monitored during imaging procedures and isoflurane was adjusted dependent on depth of anesthesia. A 10-minute transmission image was first acquired using a ^57Co point source for the purpose of attenuation correction of the final PET images and confirmation of lung localization for region of interest (ROI) analysis. The scanning region was located beginning at the neck area and extending toward the hind limbs of each animal in order to place the lungs within the 7.6 cm microPET system axial field of view (FOV). Upon completion of the transmission scan, each rat received administration of between 19.5-29.7 MBq (542-803 μCi) of [^18F]-(1S,3S)-3-(((6-(5-((((4-(fluoro)butyl)(methyl) carbamoyl)oxy)methyl)-1-methyl-1H-1,2,3-triazol-4-yl)-2-methylpyridin-3-yl)oxy)cyclohexane-1-carboxylic acid tracer via tail vein catheter followed by a 2 hour dynamic PET emission scan. […] Images were reconstructed using a maximum a posteriori (MAP) algorithm with attenuation correction using the collected transmission images and corrected for radioisotope decay. The PET images were then co-registered with corresponding transmission images using anatomical landmarks (air in lung) and boundaries of the animal holder. Images were analyzed by Inveon Research Workstation (Siemens Medical Solutions USA Inc., PA). Analysis for each rat was done with regions of interest (ROIs) drawn onto each whole lung and a section of the liver using the co-registered transmission images. There were 3-4 ROIs drawn for each lung volume (left whole lung and right whole lung) as well as 3 ROIs drawn on a section of the liver. ROIs were drawn inside the whole lung to avoid spillover signal from the heart and liver. ROIs were drawn on a section of the liver using the same method. Based on quantitative values from these ROIs (nCi/cc), % injected dose/cc (% ID/g) was calculated. Radiotracer uptake was compared across lung tissues in these groups using the time periods between 60-90 minutes post radioligand injection. […]
# LPA1 = LPA1 (Rattus norvegicus, UniProt P61794); test: as above; settings: bleomycin treated rats
# Chain of LPA1 (P61794 whole entry): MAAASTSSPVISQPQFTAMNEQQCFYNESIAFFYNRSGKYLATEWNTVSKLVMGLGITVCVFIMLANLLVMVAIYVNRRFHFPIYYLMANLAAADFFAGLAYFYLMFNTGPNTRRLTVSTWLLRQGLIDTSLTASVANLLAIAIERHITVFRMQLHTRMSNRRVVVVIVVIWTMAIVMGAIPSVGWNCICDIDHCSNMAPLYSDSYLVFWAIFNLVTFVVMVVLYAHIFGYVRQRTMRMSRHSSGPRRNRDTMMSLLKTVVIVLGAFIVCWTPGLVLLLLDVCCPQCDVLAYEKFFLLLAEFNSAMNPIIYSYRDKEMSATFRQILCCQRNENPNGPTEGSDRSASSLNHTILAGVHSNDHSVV
# Method: as §1
smiles,measurement,setting,value
Cc1nc(-c2nnn(C)c2COC(=O)N(C)CCCC[18F])ccc1O[C@H]1CCC[C@H](C(=O)O)C1 [Example 16],tissue uptake,"[1]; 1 mg/kg, Group 1 (1 mg/kg group, n=6)",0.12 ± 0.01 %ID/g
same,tissue uptake,"[1]; 3 mg/kg, Group 2 (3 mg/kg group, n=6)",0.1 ± 0.01 %ID/g
same,tissue uptake,"[1]; 10 mg/kg, Group 3 (10 mg/kg group, n=6)",0.12 ± 0.02 %ID/g
same,tissue uptake,"[1]; 30 mg/kg, Group 4 (30 mg/kg group, n=7)",0.09 ± 0.01 %ID/g
same,tissue uptake,"[1]; 100 mg/kg, Group 5 (100 mg/kg group, n=6)",0.1 ± 0.01 %ID/g
same,"Baseline % ID/g in Lung, Mean","LPA1; Group 1 (1 mg/kg group, n=6), listed as [^18F]-(1S,3S)-3-(6-(5-((((4-(fluoro)butyl)(methyl)carbamoyl)oxy)methyl)-1-meth, 1 mg/kg))",0.12 % ID/g
same,"Baseline % ID/g in Lung, Mean","LPA1; Group 2 (3 mg/kg group, n=6), listed as [^18F]-(1S,3S)-3-(6-(5-((((4-(fluoro)butyl)(methyl)carbamoyl)oxy)methyl)-1-meth, 3 mg/kg))",0.10 % ID/g
same,"Baseline % ID/g in Lung, Mean","LPA1; Group 3 (10 mg/kg group, n=6), listed as [^18F]-(1S,3S)-3-(6-(5-((((4-(fluoro)butyl)(methyl)carbamoyl)oxy)methyl)-1-meth, 10 mg/kg))",0.12 % ID/g
same,"Baseline % ID/g in Lung, Mean","LPA1; Group 4 (30 mg/kg group, n=7), listed as [^18F]-(1S,3S)-3-(6-(5-((((4-(fluoro)butyl)(methyl)carbamoyl)oxy)methyl)-1-meth, 30 mg/kg))",0.09 % ID/g
same,"Baseline % ID/g in Lung, Mean","LPA1; Group 5 (100 mg/kg group, n=6), listed as [^18F]-(1S,3S)-3-(6-(5-((((4-(fluoro)butyl)(methyl)carbamoyl)oxy)methyl)-1-meth, 100 mg/kg))",0.10 % ID/g
